Data on five compounds can be found in patent publication US20020137209A1, “Methods of dissociating nongenotropic from genotropic activity of steroid receptors” (priority 2000, published 2002).

Assay [1] has as its target T1, AR (Homo sapiens, UniProt P10275).
T1 sequence (P10275 1-920): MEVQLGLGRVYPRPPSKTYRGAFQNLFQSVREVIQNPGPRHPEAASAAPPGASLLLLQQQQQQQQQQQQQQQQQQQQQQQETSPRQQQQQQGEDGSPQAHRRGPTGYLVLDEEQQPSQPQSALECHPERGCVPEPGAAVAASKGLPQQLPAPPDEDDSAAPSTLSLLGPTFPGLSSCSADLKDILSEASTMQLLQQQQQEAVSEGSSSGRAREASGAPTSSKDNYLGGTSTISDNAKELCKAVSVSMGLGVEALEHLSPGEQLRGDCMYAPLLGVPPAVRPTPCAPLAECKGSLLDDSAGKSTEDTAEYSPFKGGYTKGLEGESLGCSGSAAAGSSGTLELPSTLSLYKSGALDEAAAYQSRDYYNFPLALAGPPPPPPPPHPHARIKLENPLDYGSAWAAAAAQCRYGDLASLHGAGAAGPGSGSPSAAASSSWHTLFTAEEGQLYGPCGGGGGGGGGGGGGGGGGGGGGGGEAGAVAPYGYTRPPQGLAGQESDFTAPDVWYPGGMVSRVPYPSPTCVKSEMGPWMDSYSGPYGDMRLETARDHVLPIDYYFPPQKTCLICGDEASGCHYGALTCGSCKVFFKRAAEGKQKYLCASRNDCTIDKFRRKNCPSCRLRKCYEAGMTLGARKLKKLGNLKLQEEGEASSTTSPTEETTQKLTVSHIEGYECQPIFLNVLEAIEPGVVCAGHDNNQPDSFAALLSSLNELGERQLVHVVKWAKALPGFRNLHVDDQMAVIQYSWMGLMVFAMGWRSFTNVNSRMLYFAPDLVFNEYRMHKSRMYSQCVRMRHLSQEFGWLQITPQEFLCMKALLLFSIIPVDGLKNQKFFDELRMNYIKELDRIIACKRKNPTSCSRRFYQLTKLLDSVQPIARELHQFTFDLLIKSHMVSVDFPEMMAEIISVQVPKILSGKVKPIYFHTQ
The assay is described as follows: Etoposide-induced apoptosis in HeLa cells transfected with AR.

Assay [2] has as its system calvaria-derived murine osteoblastic cells. The assay is described as follows: Apoptosis of calvaria-derived osteoblastic cells (trypan blue).
For assay [3], the target named is T2, ERβ (Homo sapiens, UniProt Q92731). The experiment in a line: Etoposide-induced apoptosis in HeLa cells transfected with ERβ.
Assay [4] has as its target T2, ERβ. The experiment in a line: IL-6-luc transcription in HeLa cells transfected with ERβ. Format: cell-based. Details: expressed in transfected cells; host or cells: HeLa. As to conditions: ERβ carrying HeLa cells, 10^−8 M E2. The text has this: (§1) A. HeLa cells were transiently transfected with the ERα expression vector alone or together with a vector carrying a fusion of the α-II peptide with the GAL4 DNA binding domain driven by the SV40 promoter. In addition, cells were transfected with ERE-luc or IL-6-luc for the transcription studies; or with EGFP-nuc for the apoptosis experiments. […] B. HeLa cells were transfected with ERα or ERβ alone or together with expression vectors carrying 2X293 or 2XF6 peptides. […] C. HeLa cells were transfected with a vector carrying the GRIP peptide alone or together with ERα.
(§2) DNA constructs. […] Bio. […] The sequence for peptide αII is […] (SEQ ID NO.: 1). […] (SEQ ID NO.: 3). The sequence for GRIP is […] […] […] (SEQ ID NO.: 4). […] The forward primer contained the restriction site for SalI and the ERα Kozak sequence and the reverse primer contained the BamH1 restriction site. Amplified PCR products were subcloned into the SalI/BamH1 restriction site of pCMV.
(§3) Transient transfections. HeLa cells were plated at 5×10^4/cm^2 and after 16-24 hours were transfected with a total amount of 3 μg of DNA using Lipofectamine (Life Technologies Inc). Following a 4-6 hours of incubation, the transfection mix was replaced with fresh medium containing 10% charcoal-stripped serum and treatments were initiated.

The target of assay [5] is T3, ERα (Homo sapiens, UniProt P03372).
T3 sequence (P03372 1-595): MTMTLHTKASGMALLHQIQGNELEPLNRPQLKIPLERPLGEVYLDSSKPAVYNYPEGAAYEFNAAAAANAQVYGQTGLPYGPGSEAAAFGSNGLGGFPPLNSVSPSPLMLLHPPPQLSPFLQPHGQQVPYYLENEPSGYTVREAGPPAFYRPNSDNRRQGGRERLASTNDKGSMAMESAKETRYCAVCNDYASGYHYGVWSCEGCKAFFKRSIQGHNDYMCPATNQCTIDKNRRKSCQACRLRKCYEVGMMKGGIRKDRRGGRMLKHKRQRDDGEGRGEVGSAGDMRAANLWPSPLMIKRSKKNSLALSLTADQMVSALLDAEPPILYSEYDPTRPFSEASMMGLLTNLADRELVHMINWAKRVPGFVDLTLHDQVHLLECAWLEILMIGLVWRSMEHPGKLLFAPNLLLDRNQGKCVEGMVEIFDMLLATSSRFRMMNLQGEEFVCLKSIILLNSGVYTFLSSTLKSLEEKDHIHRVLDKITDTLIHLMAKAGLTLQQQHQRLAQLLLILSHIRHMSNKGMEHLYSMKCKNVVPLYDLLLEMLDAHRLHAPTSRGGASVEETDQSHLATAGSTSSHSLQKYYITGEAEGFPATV
The experiment in a line: Etoposide-induced apoptosis in HeLa cells transfected with ERα. Particulars: peptide co-transfected, 10^−8 M E2.

Assay [6] addresses T2, ERβ. The assay is described as follows: ERE-luc transcription in HeLa cells transfected with ERβ. Format: cell-based. Particulars: ERβ carrying HeLa cells, 10^−8 M E2. On the set-up: expressed in transfected cells; host or cells: HeLa.
Text: as §1, §2, §3

The test system of assay [7] is osteocytic cell line MLO-Y4. The experiment in a line: Apoptosis of MLO-Y4 osteocytic cells (trypan blue). Format: cell-based.
Assay [8] relates to ERK1/2. The assay is described as follows: ERK phosphorylation in MLO-Y4 cells (Western blot). Type of assay: cell-based. Particulars: for effect of inhibitor on induction of ERK phosphorylation by E2 or DHT: inhibitor 25 min, then 5 min E2 or DHT.
Experimental: Western blot analysis. The phosphorylation status of ERK1/2 was analyzed by immunoblotting using a mouse monoclonal antibody recognizing tyrosine phosphorylated ERK1/2, or a rabbit polyclonal antibody recognizing total ERK1/2, followed by incubation with either an anti-mouse or an anti-rabbit antibody conjugated with horseradish peroxidase (Santa Cruz Biotechnology).
Assay [9] relates to embryonic fibroblasts derived from Src−/− mice. The experiment in a line: Apoptosis in embryonic fibroblasts from Src−/− mice. Format: cell-based. As to conditions: ER- and AR-expressing, also lack yes and Fyn. On the procedure: Cell lysates were obtained and proteins were analyzed by Western blot analysis using anti-ERK1/2 or anti-phospho-ERK1/2 (p-ERK1/2) antibodies. […] After 30 min, etoposide was added and apoptosis was assayed 6 hours later as in FIG. 1B. […] RT-PCR was performed as described in the experimental procedures. C-E. HeLa cells were transfected with Nuc-EGFP and with expression vectors encoding the full length ERα or its E domain, or the AR alone (C, left panel) or together with a dn MEK (C, right panel); a Src mutant lacking the kinase activity (Src K^−), a Src mutant lacking the SH2 domain (Src ΔSH2), or a Src mutant lacking the SH3 domain (Src ΔSH3) (D); or with ERα together with wt Shc, or the dn Shc mutants Y239F/Y240F/Y317F (Shc FFF), Y317F (Shc YYF) or Y239F/Y240F (Shc FFY) (E). Bars represent means±SD of triplicate determinations. *p<0.05 versus cells cultured without steroids, by ANOVA.
Quantification of apoptotic cells in vitro. Apoptotic cells were quantified either by trypan blue staining or by direct visualization of changes in nuclear morphology (in the case of transfected HeLa cells), as previously described (Plotkin,L. et al. (1999). J.
RT-PCR analysis of the ERs and AR in embryonic fibroblasts. […]

Assay [10] relates to HeLa cells transfected with the vector without receptor (empty vector, ev). The assay is described as follows: Etoposide-induced apoptosis in HeLa cells transfected with empty vector. As to conditions: 10^−12M to 10^−8 M.

Ends that are not written are not given here.

T2 sequence (Q92731 whole entry, species assumed, the tested form may be a part): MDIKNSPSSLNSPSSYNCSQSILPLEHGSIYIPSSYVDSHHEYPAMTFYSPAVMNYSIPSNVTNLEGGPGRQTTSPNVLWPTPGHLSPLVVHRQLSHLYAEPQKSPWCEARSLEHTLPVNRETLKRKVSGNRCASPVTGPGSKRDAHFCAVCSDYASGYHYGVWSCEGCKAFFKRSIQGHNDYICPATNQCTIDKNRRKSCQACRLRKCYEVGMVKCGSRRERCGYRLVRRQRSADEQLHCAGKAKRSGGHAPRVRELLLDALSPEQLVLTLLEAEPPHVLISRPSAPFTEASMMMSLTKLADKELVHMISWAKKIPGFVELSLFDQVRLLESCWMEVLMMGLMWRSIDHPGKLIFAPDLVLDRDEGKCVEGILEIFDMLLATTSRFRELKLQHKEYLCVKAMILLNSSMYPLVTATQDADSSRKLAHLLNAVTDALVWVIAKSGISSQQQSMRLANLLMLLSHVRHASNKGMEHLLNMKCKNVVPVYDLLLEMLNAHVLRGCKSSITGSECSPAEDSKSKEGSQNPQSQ

On to `C[C@]12CC[C@@H]3c4ccc(O)cc4C[C@@H](CCCCCCCCC[S+]([O-])CCCC(F)(F)C(F)(F)F)[C@H]3[C@@H]1CC[C@@H]2O` (some centres unmarked) [ICI 182,780], for which the “effect of antagonist/inhibitor on the anti-apoptotic effect of E2 or DHT” value in assay [1] was “abrogated”. Besides, the “effect of antagonist on the anti-apoptotic effect of DHT” value in assay [2] (antagonist pre-treatment 30 min, 10^−8 M DHT, etoposide) is recorded as “blocked”. Besides, the “effect of antagonist on the anti-apoptotic effect of E2” value in [2] (antagonist pre-treatment 30 min, 10^−8 M E2, etoposide) is “blocked”.
With “293: ERβ-specific peptide SSIKDFPNLISLLSR (SEQ ID NO.: 2); two copies expressed fused to GAL4 DNA binding domain (also: two copies fused to GAL4 DNA binding domain) [compound 293]”, the “effect of peptide on the anti-apoptotic activity of ERβ (E2)” value in assay [3] (peptide co-transfected, 10^−8 M E2) is recorded as “did block”. Also, in assay [4], the “effect of peptide on E2 effect on IL-6-Luc transcription” value is given as “blocked”. In addition, in [5], the “effect of peptide on the anti-apoptotic activity of ERα (E2)” value is reported as “did not have an effect”. In assay [6], the “effect of peptide on E2-induced ERE-Luc transcription” value was “blocked”.
`C[C@]12CCC(=O)C[C@@H]1CC[C@@H]1[C@@H]2CC[C@]2(C)[C@@H](O)CC[C@@H]12` [DHT, 5β-dihydrotestosterone]: the “prevention of apoptosis induced by etoposide, dexamethasone or TNFα” value in assay [7] (10^−8 M steroid) and in assay [2] (10^−8 M steroid) was “prevented apoptosis” each time. Besides, the “dose-dependent inhibition of etoposide-induced apoptosis compared with calvaria cells” value in assay [7] (not shown) is “identical results”. The “time of maximal effect on phosphorylation of ERKs” value in assay [8] (MLO-Y4 cells) worked out at 5 min. For the same compound, the “prevention of etoposide-induced apoptosis” value in [3] (HeLa transfected with ERβ) is “prevented apoptosis in a dose-dependent manner”. The “anti-apoptotic effect in Src−/− fibroblasts (unlike Src+/+ wild type controls)” value in assay [9] was “unresponsive”. Also, the “effect on etoposide-induced apoptosis” value in [10] is reported as “Neither E2 nor DHT (10^−12M to 10^−8 M) had an effect”.
With `Cc1ccc(-c2nn(C(C)(C)C)c3ncnc(N)c23)cc1` [PP1], in assay [7] (inhibitor 30 min prior to E2 or DHT, etoposide 6 hours), the “effect of inhibitor on the anti-apoptotic effect of E2 and DHT” value is recorded as “completely abrogated”. Moreover, the “effect of inhibitor on induction of ERK phosphorylation by E2 or DHT” value in assay [8] is on record as “blocked”.
In the case of `N#CC(=C(/N)Sc1ccccc1N)/C(C#N)=C(/N)Sc1ccccc1N` [UO 126], the “effect of inhibitor on induction of ERK phosphorylation by E2 or DHT” value in assay [8] is given as “blocked”.
